Measurements from ChEMBL document CHEMBL3885861, “Open TG-GATES”.

Species on record: Rattus norvegicus
Test: Open TG-GATES - Regimen: Single
Assay type: toxicity, organism-based, Sprague-Dawley
Parameters: regimen Single, gender Male, age 6 weeks
Settings: in vivo, po, route gavage; for gamma-GTP / ALP / AST / BUN / CRE / Ca / DBIL / GLC / IP / K / LDH / Na / PL / RALB / TBIL / TC / TG / TP / ALT: tissue Plasma; for APTT / Bas / Eos / Fbg / Hb / Ht / MCH / MCHC / MCV / Mono / Neu / PT / Plat / RBC / Ret / WBC / Lym: tissue Blood; for KIDNEY_L / KIDNEY_R / KIDNEY_TOTAL: tissue Kidney; for LIVER: tissue Liver
[1] = 300 mg/kg, 3 h, dose level Middle
[2] = 300 mg/kg, 6 h, dose level Middle
[3] = 300 mg/kg, 9 h, dose level Middle
[4] = 300 mg/kg, 24 h, dose level Middle

Which gamma-GTP (100 mg/kg, 24 h, dose level Low) does the source give for `O=C(O)c1cn(C2CC2)c2cc(N3CCNCC3)c(F)cc2c1=O` [CIPROFLOXACIN] here?
The gamma-GTP was 1.4 IU/L.

What about the TERMINAL_BW [1] of the same compound?
The TERMINAL_BW was 184.9 g.

What about the APTT [1] of the same compound?
Its APTT is 16.7 s.

And the Bas [1]?
The Bas was 0%.

And the Eos [1]?
The Eos was 0.4%.

And the Fbg [1]?
The Fbg was 204.6 mg/dL.

What about the Hb [1] of the same compound?
The Hb was 13.2 g/dL.

What about the Ht [1] of the same compound?
The Ht was 39.5%.

And the MCH [1]?
The MCH was 22.8 pg.

What about the MCHC [1] of the same compound?
Its MCHC is 33.4%.

And the MCV [1]?
Its MCV is 68.2 fL.

What about the Mono [1] of the same compound?
Its Mono is 6%.

And the Neu [1]?
Its Neu is 14.2%.

What about the PT [1] of the same compound?
Its PT is 12.4 s.

And the Plat [1]?
The Plat was 99.2 x10_4/uL.

What about the RBC [1] of the same compound?
Its RBC is 579 x10_4/ul.

And the Ret [1]?
Its Ret is 11.6%.

And the WBC [1]?
Its WBC is 102.6 x10_2/uL.

And the KIDNEY_L [1]?
Its KIDNEY_L is 0.8 g.

What about the KIDNEY_R [1] of the same compound?
The KIDNEY_R was 0.9 g.

What about the KIDNEY_TOTAL [1] of the same compound?
Its KIDNEY_TOTAL is 1.7 g.

What about the LIVER [1] of the same compound?
The LIVER was 9 g.

What about the ALP [1] of the same compound?
Its ALP is 905.6 IU/L.

And the AST [1]?
Its AST is 68.2 IU/L.

What about the BUN [1] of the same compound?
The BUN was 11.6 mg/dL.

And the CRE [1]?
The CRE was 0.5 mg/dL.

And the Ca [1]?
Its Ca is 11 mg/dL.

And the DBIL [1]?
The DBIL was 0.006 mg/dL.

What about the GLC [1] of the same compound?
Its GLC is 183.6 mg/dL.

What about the IP [1] of the same compound?
Its IP is 9.9 mg/dL.

What about the K [1] of the same compound?
Its K is 4.7 meq/L.

And the LDH [1]?
Its LDH is 78.6 IU/L.

What about the Na [1] of the same compound?
Its Na is 138.8 meq/L.

What about the PL [1] of the same compound?
Its PL is 145.6 mg/dL.

And the RALB [1]?
The RALB was 3.9 g/dL.

And the TBIL [1]?
The TBIL was 0.4 mg/dL.

And the TC [1]?
The TC was 84 mg/dL.

And the TG [1]?
Its TG is 43.6 mg/dL.

And the TP [1]?
The TP was 5.5 g/dL.

What about the gamma-GTP [1] of the same compound?
Its gamma-GTP is 1 IU/L.

What about the TERMINAL_BW [2] of the same compound?
The TERMINAL_BW was 179.8 g.

And the Bas [2]?
The Bas was 0%.

What about the Eos [2] of the same compound?
Its Eos is 1%.

And the Fbg [2]?
Its Fbg is 208.2 mg/dL.

What about the Hb [2] of the same compound?
Its Hb is 12.8 g/dL.

What about the MCH [2] of the same compound?
The MCH was 22.1 pg.

What about the MCHC [2] of the same compound?
Its MCHC is 33%.

And the MCV [2]?
Its MCV is 67.1 fL.

What about the Mono [2] of the same compound?
The Mono was 8%.

What about the PT [2] of the same compound?
Its PT is 12.4 s.

And the Plat [2]?
The Plat was 101.5 x10_4/uL.

And the RBC [2]?
The RBC was 579.8 x10_4/ul.

What about the Ret [2] of the same compound?
Its Ret is 10.5%.

And the WBC [2]?
The WBC was 103.6 x10_2/uL.

And the KIDNEY_L [2]?
Its KIDNEY_L is 0.9 g.

And the KIDNEY_R [2]?
The KIDNEY_R was 0.8 g.

And the KIDNEY_TOTAL [2]?
The KIDNEY_TOTAL was 1.7 g.

And the LIVER [2]?
The LIVER was 8.1 g.

What about the ALP [2] of the same compound?
The ALP was 804.2 IU/L.

What about the ALT [2] of the same compound?
The ALT was 35.2 IU/L.

What about the BUN [2] of the same compound?
Its BUN is 11 mg/dL.

And the CRE [2]?
The CRE was 0.5 mg/dL.

What about the Ca [2] of the same compound?
Its Ca is 11.6 mg/dL.

And the DBIL [2]?
Its DBIL is 0.038 mg/dL.

And the GLC [2]?
Its GLC is 175.2 mg/dL.

What about the IP [2] of the same compound?
Its IP is 10.3 mg/dL.

What about the K [2] of the same compound?
Its K is 5.1 meq/L.

And the LDH [2]?
The LDH was 82.2 IU/L.

What about the Na [2] of the same compound?
Its Na is 138 meq/L.

And the PL [2]?
Its PL is 131.8 mg/dL.

And the RALB [2]?
Its RALB is 3.8 g/dL.

What about the TBIL [2] of the same compound?
The TBIL was 0.4 mg/dL.

And the TC [2]?
Its TC is 82.2 mg/dL.

What about the TG [2] of the same compound?
Its TG is 36.2 mg/dL.

What about the TP [2] of the same compound?
Its TP is 5.6 g/dL.

And the gamma-GTP [2]?
The gamma-GTP was 1.4 IU/L.

And the TERMINAL_BW [3]?
Its TERMINAL_BW is 176.2 g.

What about the APTT [3] of the same compound?
Its APTT is 16.9 s.

And the Bas [3]?
Its Bas is 0%.

And the Eos [3]?
The Eos was 0.8%.

What about the Fbg [3] of the same compound?
The Fbg was 220.4 mg/dL.

And the Hb [3]?
Its Hb is 13.2 g/dL.

What about the Ht [3] of the same compound?
The Ht was 39.7%.

What about the Lym [3] of the same compound?
Its Lym is 81%.

What about the MCV [3] of the same compound?
The MCV was 67.5 fL.

What about the Mono [3] of the same compound?
Its Mono is 5.2%.

What about the Neu [3] of the same compound?
The Neu was 13.4%.

What about the PT [3] of the same compound?
Its PT is 11.5 s.

What about the Plat [3] of the same compound?
The Plat was 101.9 x10_4/uL.

What about the RBC [3] of the same compound?
The RBC was 588.6 x10_4/ul.

And the Ret [3]?
The Ret was 9.9%.

What about the WBC [3] of the same compound?
Its WBC is 105.6 x10_2/uL.

And the KIDNEY_L [3]?
The KIDNEY_L was 0.8 g.

And the KIDNEY_R [3]?
The KIDNEY_R was 0.8 g.

And the KIDNEY_TOTAL [3]?
Its KIDNEY_TOTAL is 1.7 g.

What about the LIVER [3] of the same compound?
The LIVER was 7.2 g.

And the ALP [3]?
Its ALP is 927.2 IU/L.

And the ALT [3]?
The ALT was 33 IU/L.

What about the AST [3] of the same compound?
The AST was 67.4 IU/L.

What about the BUN [3] of the same compound?
The BUN was 10.2 mg/dL.

What about the CRE [3] of the same compound?
The CRE was 0.5 mg/dL.

What about the DBIL [3] of the same compound?
Its DBIL is 0.082 mg/dL.

And the GLC [3]?
Its GLC is 191.4 mg/dL.

And the IP [3]?
Its IP is 10.9 mg/dL.

What about the K [3] of the same compound?
The K was 5 meq/L.

And the LDH [3]?
Its LDH is 79.8 IU/L.

What about the Na [3] of the same compound?
The Na was 139.2 meq/L.

What about the PL [3] of the same compound?
Its PL is 120.4 mg/dL.

What about the RALB [3] of the same compound?
The RALB was 3.9 g/dL.

What about the TBIL [3] of the same compound?
The TBIL was 0.3 mg/dL.

And the TC [3]?
Its TC is 72.8 mg/dL.

And the TP [3]?
Its TP is 5.6 g/dL.

And the gamma-GTP [3]?
Its gamma-GTP is 1.4 IU/L.

What about the TERMINAL_BW [4] of the same compound?
The TERMINAL_BW was 194.3 g.

And the Bas [4]?
The Bas was 0%.

And the Eos [4]?
The Eos was 1%.

And the Fbg [4]?
The Fbg was 214.4 mg/dL.

What about the Hb [4] of the same compound?
Its Hb is 12.9 g/dL.

What about the Lym [4] of the same compound?
Its Lym is 77.2%.

And the MCH [4]?
The MCH was 21.4 pg.

What about the MCHC [4] of the same compound?
The MCHC was 33.1%.

And the MCV [4]?
The MCV was 64.8 fL.

And the Mono [4]?
Its Mono is 7%.

And the PT [4]?
Its PT is 12.4 s.

What about the Plat [4] of the same compound?
Its Plat is 106.2 x10_4/uL.

And the RBC [4]?
Its RBC is 600.4 x10_4/ul.

And the Ret [4]?
Its Ret is 9.4%.

And the WBC [4]?
The WBC was 96.1 x10_2/uL.

What about the KIDNEY_L [4] of the same compound?
The KIDNEY_L was 0.9 g.

And the KIDNEY_R [4]?
The KIDNEY_R was 0.9 g.

And the KIDNEY_TOTAL [4]?
The KIDNEY_TOTAL was 1.8 g.

And the LIVER [4]?
The LIVER was 8.5 g.

And the ALP [4]?
Its ALP is 843 IU/L.

And the ALT [4]?
The ALT was 37.8 IU/L.

What about the AST [4] of the same compound?
Its AST is 71.8 IU/L.

And the BUN [4]?
The BUN was 17.6 mg/dL.

What about the CRE [4] of the same compound?
The CRE was 0.5 mg/dL.

What about the Ca [4] of the same compound?
Its Ca is 11.3 mg/dL.

What about the DBIL [4] of the same compound?
The DBIL was 0.058 mg/dL.

What about the GLC [4] of the same compound?
Its GLC is 193 mg/dL.

And the IP [4]?
Its IP is 9.2 mg/dL.

And the K [4]?
The K was 4.7 meq/L.

What about the LDH [4] of the same compound?
Its LDH is 93.4 IU/L.

What about the Na [4] of the same compound?
The Na was 140.2 meq/L.

What about the PL [4] of the same compound?
Its PL is 153.2 mg/dL.

What about the RALB [4] of the same compound?
Its RALB is 3.9 g/dL.

What about the TBIL [4] of the same compound?
The TBIL was 0.3 mg/dL.

And the TC [4]?
The TC was 95.4 mg/dL.

What about the TG [4] of the same compound?
The TG was 49 mg/dL.

What about the TP [4] of the same compound?
The TP was 5.9 g/dL.

What about the gamma-GTP [4] of the same compound?
Its gamma-GTP is 1.8 IU/L.
